Like-named read-outs stand apart in the source and are kept apart here. Marks after values point to notes of the source that are not given here.
Tests used:
[1] = test system: Madin Darby canine kidney (MDCK) cells
[2] = type: binding; conditions: heme 2.4 μM, DMSO:H2O/4:6, v/v; increasing compound concentration
P. falciparum CQ^S (3D7) = type: cell-based, Plasmodium falciparum; conditions: read-out: IC50 CQ^S (3D7); CQ sensitive strain; primary screening
P. falciparum CQ^R (K1) = test: microbe, parasite or virus in culture; type: cell-based, Plasmodium falciparum
[3] = pH 5.6; cited from earlier work
[4] = pH 5.8; cited from earlier work
GC rich CT DNA = type: binding, calf

Molecule	Cytotoxicity MIC ([1]; dog)	further results
Oseltamivir carboxylate [reference compound]		CC50 [1]: > 100000 nM; Cytotoxicity MIC [1]: h 50% cytotoxic concentration, as determined by measuring the cell viability with the colorimetric formazan- based MTS assay (reference drugs used: Oseltamivir carboxylate CC50/MIC >100, Ribavirin CC50/MIC >100, Amantadine CC50/MIC >200 and Rimantadine CC50/MIC >200). μM
CCOC(=O)c1c(C)nc(NCCCNc2ccnc3cc(Cl)ccc23)nc1-c1ccccc1 [Compound 10b, 5-Ethoxycarbonyl-6-methyl-4-phenyl-2-[(7-chloroquinolin-4-ylamino)propylamino]pyrimidine]	0.8 µM	
NC12CC3CC(CC(C3)C1)C2 [Amantadine, reference compound]	h 50% cytotoxic concentration, as determined by measuring the cell viability with the colorimetric formazan- based MTS assay (reference drugs used: Oseltamivir carboxylate CC50/MIC >100, Ribavirin CC50/MIC >100, Amantadine CC50/MIC >200 and Rimantadine CC50/MIC >200). μM	
CCOC(=O)c1c(C)nc(Nc2ccccc2Nc2ccnc3cc(Cl)ccc23)nc1-c1ccccc1 [Compound 10h, 5-Ethoxycarbonyl-6-methyl-4-phenyl-2-[2-(7-chloroquinolin-4-ylamino)phenylamino] pyrimidine]		change in heme absorbance at 402 nm on titration [2]: no change in the absorbance at 402 nm
Cc1nc(NCCCNc2ccnc3cc(Cl)ccc23)nc(-c2cccc([N+](=O)[O-])c2)c1C(=O)OC(C)C [Compound 10n, 5-Isopropyloxycarbonyl-6-methyl-4-(3-nitrophenyl)-2-[(7-chloroquinolin-4-ylamino)propylamino]pyrimidine]	0.8 µM	
Cc1nc(NCCNc2ccnc3cc(Cl)ccc23)nc(-c2ccccc2[N+](=O)[O-])c1C(=O)OC(C)C [Compound 10p, 5-Isopropyloxycarbonyl-6-methyl-4-(2-nitrophenyl)-2-[(7-chloroquinolin-4-ylamino)ethylamino] pyrimidine]	≥0.8 µM	
5-Ethoxycarbonyl-6-methyl-4-phenyl-2-[5-(7-chloroquinolin-4-ylamino)-2-methylpentylamino] pyrimidine [Compound 10k]		IC50 (P. falciparum CQ^S (3D7)): 287 nM; IC50 (P. falciparum CQ^R (K1); read-out: IC50 CQ^R (K1)): 860 nM
CCOC(=O)c1c(C)nc(NCCCNc2ccnc3cc(Cl)ccc23)nc1C [Compound 10l, 5-Ethoxycarbonyl-6-methyl-4-methyl-2-[(7-chloroquinolin-4-ylamino)propylamino]pyrimidine]	20 µM	
CCOC(=O)c1c(C)nc(NCCCCNc2ccnc3cc(Cl)ccc23)nc1-c1ccccc1 [Compound 10c, 5-Ethoxycarbonyl-6-methyl-4-phenyl-2-[(7-chloroquinolin-4-ylamino)butylamino]pyrimidine]	0.8 µM	
CCOC(=O)c1c(C)nc(NCCCCNc2ccnc3cc(Cl)ccc23)nc1C [Compound 10m, 5-Ethoxycarbonyl-6-methyl-4-methyl-2-[(7-chloroquinolin-4-ylamino)butylamino]pyrimidine]	4 µM	
CCN(CC)CCCC(C)Nc1ccnc2cc(Cl)ccc12 (stereo not drawn) [Compound 2, chloroquine, reference compound]		IC50 (P. falciparum CQ^R (K1); Plasmodium falciparum, K1, read-out: IC50 CQ^R (K1)): 202 nM; Monomeric heme log K [3]: 4.82; μ-oxo heme log K [4]: 5.6 ^c
Cc1nc(NCCCCNc2ccnc3cc(Cl)ccc23)nc(-c2ccccc2[N+](=O)[O-])c1C(=O)OC(C)C [Compound 10r, 5-Isopropyloxycarbonyl-6-methyl-4-(2-nitrophenyl)-2-[(7-chloroquinolin-4-ylamino)butylamino] pyrimidine]	4.0 µM	binding constant (log K) from fluorescence data, CT DNA (GC rich CT DNA): 4.67
CCOC(=O)c1c(C)nc(Nc2ccc(Nc3ccnc4cc(Cl)ccc34)cc2)nc1-c1ccccc1 [Compound 10i, 5-Ethoxycarbonyl-6-methyl-4-phenyl-2-[4-(7-chloroquinolin-4-ylamino)phenylamino] pyrimidine]		change in heme absorbance at 402 nm on titration [2]: marked gradual decrease in absorbance at 402 nm
NC(=O)c1ncn([C@@H]2O[C@H](CO)[C@@H](O)[C@H]2O)n1 [Ribavirin, reference compound]	h 50% cytotoxic concentration, as determined by measuring the cell viability with the colorimetric formazan- based MTS assay (reference drugs used: Oseltamivir carboxylate CC50/MIC >100, Ribavirin CC50/MIC >100, Amantadine CC50/MIC >200 and Rimantadine CC50/MIC >200). μM	
CCOC(=O)c1c(C)nc(NCCNc2ccnc3cc(Cl)ccc23)nc1-c1ccccc1 [Compound 10a, 5-Ethoxycarbonyl-6-methyl-4-phenyl-2-[(7-chloroquinolin-4-ylamino)ethylamino] pyrimidine]	0.8 µM	
CC(N)C12CC3CC(CC(C3)C1)C2 (stereo not drawn) [Rimantadine, reference compound]	h 50% cytotoxic concentration, as determined by measuring the cell viability with the colorimetric formazan- based MTS assay (reference drugs used: Oseltamivir carboxylate CC50/MIC >100, Ribavirin CC50/MIC >100, Amantadine CC50/MIC >200 and Rimantadine CC50/MIC >200). μM	
